In PubChem BioAssay AID651895 (Broad Institute, 2012):
Activity calls are given as the source filed them.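 How the source made its calls: active means IC50 under 100 times the reference toxin's IC50 in the same rat muscle cell viability test; inactive means the rest.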

Tested on: L-6 rat myoblast viability, Alamar blue, 72 h
Assay: L-6 rat myoblast cytotoxicity, dose response, counter-screen for T. cruzi inhibitor project, cell-based, plate reader, dry powder (AID 651895)

SMILES: C[C@@H]1CN([C@@H](C)CO)C(=O)c2cccc(NC(=O)c3ccncc3)c2O[C@H]1CN(C)Cc1ccc(Oc2ccccc2)cc1
- IC50: 14.8 µM (inactive)
